Experimental findings from patent US8993565B2, “(6-oxo-1,6-dihydropyrimidin-2-yl)amide derivatives, preparation thereof and pharmaceutical use thereof as AKT(PKB) phosphorylation inhibitors” (Sanofi, priority 2009, dated 2015) are described below.

As a reminder, the IC50 is the concentration that inhibits the measured activity by half. Higher therefore signals weaker potency in that assay. Broadly, the melting point is the temperature of the solid-liquid transition.

Data set [1] concerns AKT protein phosphorylated on serine 473 (P-AKT-S473). Kind of data set: Study of pAKT expression in PC3 human prostate carcinoma cells measured by the MSD Multi-spot Biomarker Detection technique (Test B). In kind it is cell-based. To be noted: PC-3, inhibition of AKT phosphorylation (P-AKT-S473), MSD sandwich immunoassay, 1 to 2 h incubation, absolute IC50, mean of 2 experiments. In outline: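 Lysate P-AKT-S473 quantified by MSD electrochemiluminescent sandwich immunoassay; inhibition vs DMSO and cell-free background, IC50 averaged over 2 experiments.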

The test system of data set [2] is AKT protein phosphorylated on serine 473 (pAKT-S473). Kind of data set: Study of pAKT expression in PC3 human prostate carcinoma cells measured by western blotting (Test A). To be noted: PC-3, inhibition of AKT phosphorylation (pAKT-S473), 1 to 2 hours incubation, absolute IC50, mean of two experiments. In kind it is cell-based. The protocol:
The inhibitory activity of the molecules on AKT phosphorylation is measured either by western blotting using the technique described below, or by the MSD Multi-spot Biomarker detection technique from Meso Scale Discovery also described below.
Study of pAKT Expression in PC3 Human Prostate Carcinoma Cells Measured by Western Blotting (Test A):
On day 2, the cells are incubated in the presence or absence of the test products for 1 to 2 hours at 37° C. in the presence of 5% CO2. The molecules, diluted in dimethyl sulphoxide (DMSO Sigma #D2650), are added from a 10-times concentrated stock solution, the final percentage of DMSO being 0.1%. The molecules are tested either at a single concentration of less than or equal to 10 μM, or at increasing concentrations in a range that can extend from less than 1 nM to 10 μM.
After this incubation, the cells are lysed for the preparation of the proteins.
The lysate is centrifuged for 10 min at 6000 rpm. 155 μl of supernatant are recovered. 150 μl are incubated for denaturation for 5 min at 95° C. in the presence of 4× NuPAGE LDS Sample Buffer diluted 4-fold (InVitrogen ref NP0007) and of 10× NuPAGE Sample Reducing Agent diluted 10-fold (InVitrogen ref NP0009). These samples are then frozen at −20° C.
The gel is then transferred on to an Invitrolon PVDF membrane (Invitrogen #LC2007) permeabilised beforehand and for a few seconds in ethanol (Ethanol Fischer Scientific #E/0600DF/15).
The transfer is carried out in a Biorad tank at 30 volts overnight or at 60 volts for 3 hours, in the presence of 20× NUPAGE Transfer Buffer diluted 20-fold (InVitrogen ref NP0006).
The membrane is then saturated in saturating solution composed of TBS (10× Tris Buffered Saline, Sigma #T5912, diluted 10-fold), 0.1% Tween (Sigma #P5927) and 3% BSA (Bovine Albumin Serum Fraction V, Sigma #A4503) for 6 h after overnight transfer or else for 1 h after transfer for a period of 3 h.
Two rinses for min in washing solution composed of TBS and 0.1% Tween 20 are carried out before hybridisation of the secondary antibodies.
The secondary antibodies are diluted 110000th for the rabbit anti-Mouse IgG HRP antibody (W402 Promega) and to 110000th for the goat anti-Rabbit IgG HRP antibody (W401 Promega) in saturating solution, and then shaken for 1 h at ambient temperature.
Two rinses for 30 min in washing solution are carried out and then a rinse for 5 min in H2O is carried out in order to eliminate the remaining Tween 20.
The luminescence is read with the FujiFilm device (Ray Test).
The FUJI device measures the total luminescence signal obtained (AU) for each band selected. It then subtracts the background noise (BG) proportional to the size of the band selected (Area), said background noise being calculated from a specific background noise band, with a view to obtaining the specific signal (AU-BG) for each band. The band obtained in the absence of product and in the presence of 0.1% DMSO is considered to be the 100% signal. The software calculates the % specific activity (Ratio) obtained for each band selected as a function of this 100% signal. The percentage inhibition is calculated for each concentration according to the formula (100%−Ratio).
Two independent experiments make it possible to calculate the mean of the percentages of inhibition obtained at a given concentration for the products tested only at one concentration.
Two independent experiments make it possible to calculate the mean of the IC50s.
(In general: A western blot detects proteins with antibodies after separation by electrophoresis.)

Each structure is given as a SMILES string.

For the compound `CN(C)C[C@H]1CN(C(=O)Cc2nc(N3CCOCC3)cc(=O)[nH]2)c2ccccc21` [Example 136, 2-(2-{(3S)-3-[(dimethylamino)methyl]-2,3-dihydro-1H-indol-1-yl}-2-oxoethyl)-6-(morpholin-4-yl)pyrimidin-4(3H)-one], the melting point worked out at 256 °C. Further, in data set [1], it took 26 nM to reach half-maximal inhibition (IC50).
With `O=C(Cc1nc(N2CCOCC2)cc(=O)[nH]1)Nc1cccc2ocnc12` [Example 42, N-(1,3-benzoxazol-4-yl)-2-[4-(morpholin-4-yl)-6-oxo-1,6-dihydropyrimidin-2-yl]acetamide], the IC50 in data set [2] was determined as 400 nM; in data set [1], 148 nM.
`O=C(Cc1nc(N2CCOCC2)cc(=O)[nH]1)N1CCc2ccccc2C1` [Example 111, 2-[2-(3,4-dihydroisoquinolin-2(1H)-yl)-2-oxoethyl]-6-(morpholin-4-yl)pyrimidin-4(3H)-one] yielded a melting point of 107.5 °C. In data set [1], the IC50 was found to be 301 nM.
For `Cn1c(CC(=O)N2CCc3c(Cl)cccc32)nc(N2CCOCC2)cc1=O` [Example 104, 2-[2-(4-chloro-2,3-dihydro-1H-indol-1-yl)-2-oxoethyl]-3-methyl-6-(morpholin-4-yl)pyrimidin-4(3H)-one] the same measures were 235 °C and 42 nM.
As for `CCOc1cccc(NC(=O)Cc2nc(N3CCOCC3)cc(=O)[nH]2)c1` [Example 58, N-(3-ethoxyphenyl)-2-[4-(morpholin-4-yl)-6-oxo-1,6-dihydropyrimidin-2-yl]acetamide], the IC50 in data set [2] amounted to 760 nM; in data set [1], 71 nM.
In turn, `CCN(CC)CC1CN(C(=O)Cc2nc(N3CCOCC3)cc(=O)[nH]2)c2ccccc21` (stereo not drawn) [Example 145, 2-(2-{3-[(diethylamino)methyl]-2,3-dihydro-1 H-indol-1-yl}-2-oxoethyl)-6-(morpholin-4-yl)pyrimidin-4(3 H)-one] came in with a melting point of 202 °C. The IC50 in data set [1] was 38 nM.
The like results for `O=C(Cc1nc(N2CCOCC2)cc(=O)[nH]1)Nc1cccc(OC(F)(F)C(F)F)c1` [Example 75, 2-[4-(morpholin-4-yl)-6-oxo-1,6-dihydropyrimidin-2-yl]-N-[3-(1,1,2,2-tetrafluoroethoxy)phenyl]acetamide] were, in that order, 229 °C and 69 nM.
Consider `O=C(Cc1nc(N2CCOCC2)cc(=O)[nH]1)Nc1cccc2[nH]ccc12` [Example 71, N-(1 H-indol-4-yl)-2-[4-(morpholin-4-yl)-6-oxo-1,6-dihydropyrimidin-2-yl]acetamide], for which the IC50 in data set [2] was found to be 5380 nM; in data set [1], 120 nM.
For the compound `O=C(Cc1nc(N2CCOCC2)cc(=O)[nH]1)Nc1cccc2c1OCCN2` [Example 143, N-(3,4-dihydro-2H-1,4-benzoxazin-8-yl)-2-[4-(morpholin-4-yl)-6-oxo-1,6-dihydropyrimidin-2-yl]acetamide], the melting point was determined as 243 °C. The compound further yielded an IC50 in data set [1] of 473 nM.
For `O=C(Cc1nc(N2CCOCC2)cc(=O)[nH]1)Nc1cccc2c1NCCC2` [Example 148, 2-[4-(morpholin-4-yl)-6-oxo-1,6-dihydropyrimidin-2-yl]-N-(1,2,3,4-tetrahydroquinolin-8-yl)acetamide] the same measures were 232 °C and 234 nM.
Consider `O=C(Cc1nc(N2CCOCC2)cc(=O)[nH]1)Nc1cccc(F)c1` [Example 14, N-(3-fluorophenyl)-2-[4-(morpholin-4-yl)-6-oxo-1,6-dihydropyrimidin-2-yl]acetamide], for which the concentration for half-maximal inhibition (IC50) is 570 nM in data set [2] and 74 nM in data set [1].
As for `O=C(Cc1nc(N2CCOCC2)cc(=O)[nH]1)Nc1ccc(F)c(F)c1` [Example 6, N-(3,4-difluorophenyl)-2-[4-(morpholin-4-yl)-6-oxo-1,6-dihydropyrimidin-2-yl]acetamide], in data set [2], inhibition was half-maximal at 23 nM (IC50).
As to `COc1cccc(NC(=O)Cc2nc(N3CCOCC3)cc(=O)[nH]2)c1` [Example 16, N-(3-methoxyphenyl)-2-[4-(morpholin-4-yl)-6-oxo-1,6-dihydropyrimidin-2-yl]acetamide], the IC50 in data set [2] came to 850 nM.
For `O=C(Cc1nc(N2CCOCC2)cc(=O)[nH]1)Nc1ccc(F)c(OC(F)(F)F)c1` [Example 54, N-[4-fluoro-3-(trifluoromethoxy)phenyl]-2-[4-(morpholin-4-yl)-6-oxo-1,6-dihydropyrimidin-2-yl]acetamide], the IC50 was determined as 807 nM in data set [2] and 67 nM in data set [1].
The like results for `Cn1c(CC(=O)Nc2ccc(F)c(Cl)c2)nc(N2CCOCC2)cc1=O` [Example 68, N-(3-chloro-4-fluorophenyl)-2-[1-methyl-4-(morpholin-4-yl)-6-oxo-1,6-dihydropyrimidin-2-yl]acetamide] were, in that order, 202 nM and 79 nM.
In the case of `O=C(Cc1nc(N2CCOCC2)cc(=O)[nH]1)Nc1ccccc1` [Example 1, 2-[4-(morpholin-4-yl)-6-oxo-1,6-dihydropyrimidin-2-yl]-N-phenylacetamide], half-maximal inhibition in data set [2] (IC50) was put at 102 nM.
Same read-out and setting: with `O=C(Cc1nc(N2CCOCC2)cc(=O)[nH]1)Nc1ccc(F)c(Br)c1` [Example 33, N-(3-bromo-4-fluorophenyl)-2-[4-(morpholin-4-yl)-6-oxo-1,6-dihydropyrimidin-2-yl]acetamide] the figure was 93 nM; with `O=C(Cc1nc(N2CCOCC2)cc(=O)[nH]1)Nc1cccc(Br)c1` [Example 18, N-(3-bromophenyl)-2-[4-(morpholin-4-yl)-6-oxo-1,6-dihydropyrimidin-2-yl]acetamide], 23 nM.
Turning to `Cc1cccc(NC(=O)Cc2nc(N3CCOCC3)cc(=O)[nH]2)c1F` [Example 41, N-(2-fluoro-3-methylphenyl)-2-[4-(morpholin-4-yl)-6-oxo-1,6-dihydropyrimidin-2-yl]acetamide], the results for the IC50 in data set [2] and in data set [1] were 290 nM and 60 nM, respectively.
In data set [2], `O=C(Cc1nc(N2CCOCC2)cc(=O)[nH]1)Nc1ccc(F)c(Cl)c1` [Example 29, N-(3-chloro-4-fluorophenyl)-2-[4-(morpholin-4-yl)-6-oxo-1,6-dihydropyrimidin-2-yl]acetamide] showed an IC50 of 116 nM.
Same read-out and setting: with `O=C(Cc1nc(N2CCOCC2)cc(=O)[nH]1)N1CCc2ccccc21` [Example 51, 2-[2-(2,3-dihydro-1 H-indol-1-yl)-2-oxoethyl]-6-(morpholin-4-yl)pyrimidin-4(3H)-one] the figure was 133 nM; with `O=C(Cc1nc(N2CCOCC2)cc(=O)[nH]1)Nc1cccc(C(=O)O)c1` [Example 21, 3-({[4-(morpholin-4-yl)-6-oxo-1,6-dihydropyrimidin-2-yl]acetyl}amino)benzoic acid], 10000 nM.
Turning to `COc1ccccc1NC(=O)Cc1nc(N2CCOCC2)cc(=O)[nH]1` [Example 11, N-(2-methoxyphenyl)-2-[4-(morpholin-4-yl)-6-oxo-1,6-dihydropyrimidin-2-yl]acetamide], half-maximal inhibition in data set [2] (IC50) was put at 632 nM.
Same read-out and setting: with `Cc1ccccc1NC(=O)Cc1nc(N2CCOCC2)cc(=O)[nH]1` [Example 10, N-(2-methylphenyl)-2-[4-(morpholin-4-yl)-6-oxo-1,6-dihydropyrimidin-2-yl]acetamide] the figure was 3500 nM.
Turning to `COC(=O)c1cc(NC(=O)Cc2nc(N3CCOCC3)cc(=O)[nH]2)ccc1F` [Example 57, methyl 2-fluoro-5-({[4-(morpholin-4-yl)-6-oxo-1,6-dihydropyrimidin-2-yl]acetyl}amino)benzoate], the IC50 in data set [2] stood at 5860 nM.
